In patent US9440926B2, “Antiviral compounds and methods” (Biotron Limited, priority 2005, dated 2016):
Read-outs that look alike come from different tables or passages of the source.

Experiments:
Assay type in all cases: cell-based
Vpu = target: T1, Vpu (Human immunodeficiency virus type 1 group M subtype B, UniProt P05919); test: Bacterial bioassay, Vpu; settings: mean bacterial bioassay score; Vpu of HIV
T1 construct: expressed in transfected cells
Source text: (§1) The bacterial bioassay method used in the present example to test the anti-viral activity of the compounds against different viral targets was described in detail in PCT/2004/000866, incorporated in its entirety herein by reference. Vpu, p7 and M referred to in the table are small membrane proteins encoded by HIV, HCV and Dengue viruses, respectively, which have functional activities supporting viral growth and/or replication.

HCV p7 = target: T2, HCV p7 (Hepatitis C virus genotype 1a, UniProt P27958); test: Bacterial bioassay, HCV p7; set-up: scale not given here; settings: mean bacterial bioassay score; p7 of HCV
T2 construct: expressed in transfected cells
T2 sequence (P27958 747-809): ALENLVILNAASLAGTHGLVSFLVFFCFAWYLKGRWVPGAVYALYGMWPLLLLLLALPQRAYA
Source text: as §1

Den M = target: T3, Den M (Dengue virus type 1, UniProt P33478); test: Bacterial bioassay, Den M; set-up: scale not given here; settings: mean bacterial bioassay score; M protein of Dengue virus
T3 construct: expressed in transfected cells
T3 sequence (P33478 206-280): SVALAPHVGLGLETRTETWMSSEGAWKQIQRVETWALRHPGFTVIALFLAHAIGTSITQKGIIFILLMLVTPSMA
Source text: as §1

HIV-1 strain Ba-L = test: HIV-1 Ba-L growth inhibition in primary macrophages (p24 ELISA); settings: for IC50: Human immunodeficiency virus 1, BAL, Primary macrophage; for AI (Antiviral Index): calculated by formula from TC50 and IC50, HIV-1Ba-L in primary macrophages
Method: The inhibition specifically of HIV-1 growth by the compounds of the invention was tested in primary macrophages in vitro using a method similar to that used to assess antibody neutralization (VanCott T C et al (1999)). In the present case, the laboratory adapted HIV-1 strain Ba-L was used, which is known to infect macrophages.
Peripheral Blood Mononuclear Cells (PBMC) were prepared from healthy donors using buffy-coat packs obtained from the Australian Red Cross Blood Service (ARCBS). Blood was received the day following donation, and had been depleted of serum and platelets, leaving a small volume (less than 100 mL) of concentrated leukocytes.
Leukocytes were separated from blood cells and granulocytes by density gradient centrifugation (Ficoll Paque) and washed extensively in PBS^− (without Ca/Mg) to remove platelets. Recovered cells were allowed to adhere to plastic tissue culture flasks (Becton Dickinson) for 2 hr, 37° C., 5% CO2, in media (DMEM (high)/10% AB serum/50 ug/mL gentamicin/2 mM L-glutamine) during which time the myeloid cells formed an adherent monolayer leaving lymphocytes unattached.
Non-adherent lymphocytes were removed by washing with warm PBS^+ (with Ca/Mg) and were generally discarded. In some cases those cells were recovered and frozen in media/10% DMSO for use in viral stock infections. The adherent monocytes were recovered by scraping gently with a plastic cell scraper. The myeloid cells were then plated into 96-well plates at a cell concentration of 1.5×10^6/mL, and allowed to fully differentiate over a period of 14 days.
Macrophages were allowed to differentiate over a 14 day period, with media changes as required. On day 14, cells were infected in the presence of decreasing concentrations of BIT compounds over a range 0-10 μM. Samples of 25 μL culture supernatants were removed from each well on day 7 and fresh media plus compound dilution was added.
After 7 days the samples with and without compound were analysed to assess the level of virus present in the wells, using a p24 ELISA (Innotest). Virus levels in samples were converted to “percentage of control virus growth” values based on the controls (containing no compound). From that dose response curve (example FIG. 1) the IC50 was calculated and used as a measure of compound anti-HIV activity.

[1] = Cytotoxicity to cells in the viral inhibition assay (MTT assay); settings: human, primary human macrophages, read-out: TC50 (the source's name)
Method: The toxicity of test compounds to cells in the viral inhibition assay was determined using the MTT assay (Pauwels R, et al. (1988); D'Cruz O J et al. (1999); Joo H. (2003)). This method utilises Thiazolyl Blue (MTT), which is added to the cell culture (100 ug/well), and incubated for 4-5 hours whilst the live, metabolically active cells convert the chemical to its purple coloured metabolite, which forms intracellular crystals. The purple colour is measured colourimetrically (570-590 nm) once cells have been permeabilised using acidified isopropanol containing 10% triton X-100. The most intense colour development occurs in wells where the metabolising cells are most numerous. […] Those values were estimated manually from the Percentage Viability vs Concentration dose response curves (FIG. 1). The compound toxicity to cells in culture was taken into account in inhibition experiments and in separate experiments involving increased concentrations of compound. TC50 values were estimated in separate experiments (not shown) where concentrations of compound were greater.

[2] = additional compounds, same assay system (HIV-1Ba-L, primary macrophages), estimated from dose response curves, read-out: Estimated IC50
[3] = additional compounds, same assay system, MTT
[4] = 168 h, against HIV-1Ba-L in primary macrophages, p24 ELISA after 7 days, estimated from dose response curves (FIG. 1), 0-10 μM, read-out: IC50
[5] = 50% cell viability, MTT assay, estimated in separate experiments at greater compound concentrations

T1 sequence (P05919 whole entry): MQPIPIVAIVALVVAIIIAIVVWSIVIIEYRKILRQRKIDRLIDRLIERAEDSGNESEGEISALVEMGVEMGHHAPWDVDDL

COc1ccc(-c2cccc3cc(C(=O)NC(=N)N)ccc23)c(OC)n1 [BIT315, (5-(2,6-dimethoxypyridin-3-yl)-2-napthoyl)guanidine]
Average Bacterial Assay Score, Vpu (Vpu): 0.20 | Average Bacterial Assay Score, HCV p7 (HCV p7): 0.30 | Average Bacterial Assay Score, Den M (Den M): 1.00

N=C(N)NC(=O)c1ccc2c(C3CC3)cccc2c1 [BIT312, (5-cyclopropyl-2-napthoyl)guanidine]
IC50 (HIV-1 strain Ba-L; [2]): < 0.63 µM | CC50 [1, 3]: 10 to 50 µM | Average Bacterial Assay Score, Vpu (Vpu): 0.50 | Average Bacterial Assay Score, HCV p7 (HCV p7): 0.80 | Average Bacterial Assay Score, Den M (Den M): 2.25

CC(=O)O.Cn1cc(-c2ccc3cc(C(=O)NC(=N)N)ccc3c2)cn1 [BIT314, (6-(1-methylpryazol-4-yl)-2-napthoyl)guanidinium acetate]
Average Bacterial Assay Score, Vpu (Vpu): 0.00 | Average Bacterial Assay Score, HCV p7 (HCV p7): 3.30 | Average Bacterial Assay Score, Den M (Den M): 1.60

N=C(N)NC(=O)/C=C/c1cccc(C(=O)c2ccccc2)c1 [BIT216, (3-benzoyl)cinnamoylguanidine]
IC50 (HIV-1 strain Ba-L; [4]): 0.9 µM | AI (Antiviral Index) (HIV-1 strain Ba-L): 28-550 | CC50 [1, 5]: 25 to 495 µM | Average Bacterial Assay Score, Vpu (Vpu): 1.3 | Average Bacterial Assay Score, HCV p7 (HCV p7): 1.3 | Average Bacterial Assay Score, Den M (Den M): 1.5

CC(=O)Nc1ccc(-c2cccc3cc(C(=O)NC(=N)N)ccc23)cc1 [BIT317, (5-(4-(acetylamino)phenyl)-2-napthoyl)guanidine]
Average Bacterial Assay Score, Vpu (Vpu): 0.00 | Average Bacterial Assay Score, HCV p7 (HCV p7): 0.20 | Average Bacterial Assay Score, Den M (Den M): 0.40

N=C(N)NC(=O)C=CC=Cc1ccccc1Br [BIT128, 5-(2′-bromophenyl)penta-2,4-dienoylguanidine, reference compound]
Average Bacterial Assay Score, Den M (Den M): 2.87

N=C(N)NC(=O)c1ccc2c(-c3ccccc3Cl)cccc2c1 [BIT316, (5-(2-chlorophenyl)-2-napthoyl)guanidine]
Average Bacterial Assay Score, Vpu (Vpu): 0.20 | Average Bacterial Assay Score, HCV p7 (HCV p7): 0.80 | Average Bacterial Assay Score, Den M (Den M): 0.50

N=C(N)NC(=O)c1ccc2c(Cl)cccc2c1 [BIT313, (5-chloro-2-napthoyl)guanidine]
IC50 (HIV-1 strain Ba-L; [2]): < 2.5 µM | CC50 [1, 3]: 10 to 50 µM | Average Bacterial Assay Score, Vpu (Vpu): 0.30 | Average Bacterial Assay Score, HCV p7 (HCV p7): 1.30 | Average Bacterial Assay Score, Den M (Den M): 3.00

N=C(N)NC(=O)c1ccc2c(-c3ccccc3)cccc2c1 [BIT307, (5-phenyl-2-napthoyl)guanidine]
IC50 (HIV-1 strain Ba-L; [2]): < 0.63 µM | CC50 [1, 3]: 10 to 50 µM | Average Bacterial Assay Score, Vpu (Vpu): 0.12 | Average Bacterial Assay Score, HCV p7 (HCV p7): 0.08 | Average Bacterial Assay Score, Den M (Den M): 2.40

N=C(N)NC(=O)C=Cc1cc(Br)ccc1F [BIT124, 5-bromo-2-fluorocinnamoylguanidine, reference compound]
Average Bacterial Assay Score, HCV p7 (HCV p7): 2.25

Cc1cccc2cc(C(=O)NC(=N)N)ccc12 [BIT218, 5-methyl-2-napthoylguanidine]
IC50 (HIV-1 strain Ba-L; [4]): 1.56 µM | AI (Antiviral Index) (HIV-1 strain Ba-L): >192 | CC50 [1, 5]: > 300 µM | Average Bacterial Assay Score, Vpu (Vpu): 1.8 | Average Bacterial Assay Score, HCV p7 (HCV p7): 1.7 | Average Bacterial Assay Score, Den M (Den M): 1.3

COc1cc2ccccc2cc1C(=O)NC(=N)N [BIT302, (3-methoxy-2-napthoyl)guanidine]
IC50 (HIV-1 strain Ba-L; [2]): < 2.5 µM | CC50 [1, 3]: > 50 µM | Average Bacterial Assay Score, Vpu (Vpu): 1.04 | Average Bacterial Assay Score, HCV p7 (HCV p7): 0.42 | Average Bacterial Assay Score, Den M (Den M): 0.50

N=C(N)NC(=O)c1ccc2c(-c3ccoc3)cccc2c1 [BIT311, (5-(3-furyl)-2-napthoyl)guanidine]
IC50 (HIV-1 strain Ba-L; [2]): < 0.63 µM | CC50 [1, 3]: 10 to 50 µM | Average Bacterial Assay Score, Vpu (Vpu): 0.42 | Average Bacterial Assay Score, HCV p7 (HCV p7): 0.42 | Average Bacterial Assay Score, Den M (Den M): 1.60

COc1ccc2cc(C(=O)NC(=N)N)ccc2c1Br [BIT223, 5-bromo-6-methoxy-2-napthoylguanidine]
IC50 (HIV-1 strain Ba-L; [4]): 0.3 µM | AI (Antiviral Index) (HIV-1 strain Ba-L): >1000 | CC50 [1, 5]: > 300 µM | Average Bacterial Assay Score, Vpu (Vpu): 0 | Average Bacterial Assay Score, HCV p7 (HCV p7): 0.0

N=C(N)NC(=O)C=Cc1ccc(Cl)c(Cl)c1 [BIT300, 3,4-dichlorocinnamoyl guanidine]
Average Bacterial Assay Score, Vpu (Vpu): 1.52 | Average Bacterial Assay Score, HCV p7 (HCV p7): 0.67 | Average Bacterial Assay Score, Den M (Den M): 3.40

CC(C)Cn1cc(-c2cccc3cc(C(=O)NC(=N)N)ccc23)cn1 [BIT310, (5-(1-isobutyl-1H-pyrazol-4-yl)-2-napthoyl)guanidine]
IC50 (HIV-1 strain Ba-L; [2]): < 2.5 µM | CC50 [1, 3]: 10 to 50 µM | Average Bacterial Assay Score, Vpu (Vpu): 0.00 | Average Bacterial Assay Score, HCV p7 (HCV p7): 0.00 | Average Bacterial Assay Score, Den M (Den M): 1.60

Cc1nn(C)c(C)c1-c1cccc2cc(C(=O)NC(=N)N)ccc12 [BIT309, (5-(1,3,5-trimethylpyrazol-4-yl)-2-napthoyl)guanidine]
IC50 (HIV-1 strain Ba-L; [2]): > 10 µM | CC50 [1, 3]: > 50 µM | Average Bacterial Assay Score, Vpu (Vpu): 0.12 | Average Bacterial Assay Score, HCV p7 (HCV p7): 0.00 | Average Bacterial Assay Score, Den M (Den M): 0.00

N=C(N)NC(=O)/C=C/c1cccc2c1CCC2 [BIT222, 3(indan-4-yl)-propenoylguanidine]
IC50 (HIV-1 strain Ba-L; [4]): > 10 µM | AI (Antiviral Index) (HIV-1 strain Ba-L): >10 | CC50 [1, 5]: > 100 µM | Average Bacterial Assay Score, Vpu (Vpu): 1.2 | Average Bacterial Assay Score, HCV p7 (HCV p7): 2.0 | Average Bacterial Assay Score, Den M (Den M): 2.2

N=C(N)NC(=O)C=Cc1cccc(Br)c1 [BIT067, (3-Bromocinnamoyl)guanidine, reference compound]
Average Bacterial Assay Score, Vpu (Vpu): 2.88

N=C(N)NC(=O)c1ccc2c(-c3ccsc3)cccc2c1 [BIT224, 5-thiophen-3-yl-2-naphthoylguanidine]
IC50 (HIV-1 strain Ba-L; [4]): 1 µM | AI (Antiviral Index) (HIV-1 strain Ba-L): >100 | CC50 [1, 5]: > 200 µM | Average Bacterial Assay Score, Vpu (Vpu): 2.2 | Average Bacterial Assay Score, HCV p7 (HCV p7): 1.1 | Average Bacterial Assay Score, Den M (Den M): 1.3

N=C(N)NC(=O)c1ccc2c(-c3cccs3)cccc2c1 [BIT308, (5-(thien-2-yl)-2-napthoyl)guanidine]
IC50 (HIV-1 strain Ba-L; [2]): < 0.63 µM | CC50 [1, 3]: 10 to 50 µM | Average Bacterial Assay Score, Vpu (Vpu): 0.45 | Average Bacterial Assay Score, HCV p7 (HCV p7): 0.08 | Average Bacterial Assay Score, Den M (Den M): 2.40

COc1cc(C(=O)NC(=N)N)c(OC)c2ccccc12 [BIT304, (1,4-dimethoxy-2-napthoyl)guanidine]
IC50 (HIV-1 strain Ba-L; [2]): < 10 µM | CC50 [1, 3]: 10 to 50 µM | Average Bacterial Assay Score, Vpu (Vpu): 0.62 | Average Bacterial Assay Score, HCV p7 (HCV p7): 0.33 | Average Bacterial Assay Score, Den M (Den M): 1.90

N=C(N)NC(=O)/C=C/c1cccc2c1OCO2 [BIT217, 2,3-methylenedioxycinnamoyl guanidine]
IC50 (HIV-1 strain Ba-L; [4]): 1.1 µM | AI (Antiviral Index) (HIV-1 strain Ba-L): >91 | CC50 [1, 5]: > 100 µM | Average Bacterial Assay Score, Vpu (Vpu): 1.8 | Average Bacterial Assay Score, HCV p7 (HCV p7): 1.0

CS(=O)(=O)Nc1ccc(-c2cccc3cc(C(=O)NC(=N)N)ccc23)cc1 [BIT319, (5-(4-((methylsulphonyl)amino)phenyl)-2-napthoyl)guanidine]
Average Bacterial Assay Score, Vpu (Vpu): 0.00 | Average Bacterial Assay Score, HCV p7 (HCV p7): 0.00 | Average Bacterial Assay Score, Den M (Den M): 0.15

CC(=O)Nc1cccc(-c2cccc3cc(C(=O)NC(=N)N)ccc23)c1 [BIT318, (5-(3-(acetylamino)phenyl)-2-napthoyl)guanidine]
Average Bacterial Assay Score, Vpu (Vpu): 2.00 | Average Bacterial Assay Score, HCV p7 (HCV p7): 0.30 | Average Bacterial Assay Score, Den M (Den M): 0.35
